Source: patent US20180127374A1, “BE[…] AS OPIOID RECEPTORS MODULATORS” (Purdue Pharma L.P., priority 2012, published 2018)
Like-named read-outs stand apart in the source and are kept apart here.

How the values were obtained:
μ-opioid receptor [1] = target: T1, μ-opioid receptor (Homo sapiens, UniProt P35372); assay: μ-opioid receptor [35S]GTPγS functional assay; assay type: biochemical; set-up: purchased Perkin Elmer, Shelton, Conn; conditions: for EC50: μ-receptor membranes, read-out: GTPγS μ EC50; for Emax: relative to the effect elicited by DAMGO
Protocol: [^35S]GTPγS functional assays were conducted using freshly thawed μ-receptor membranes (Perkin Elmer, Shelton, Conn.). Assay reactions were prepared by sequentially adding the following reagents to binding buffer (100 mM NaCl, 10 mM MgCl2, 20 mM HEPES, pH 7.4) on ice (final concentrations indicated): membrane protein (0.026 mg/mL), saponin ([…]), GDP ([…]) and [^35S]GTPγS (0.20 nM; Perkin Elmer, Shelton, Conn.). The prepared membrane solution (190 μl/well) was transferred to 96-shallow well polypropylene plates containing 10 μI of 20× concentrated stock solutions of the agonist [D-Ala^e, N-methyl-Phe^4 Gly-ol^5]-enkephalin (DAMGO) prepared in dimethyl sulfoxide (DMSO). Plates were incubated for 30 min at about 25° C. with shaking. […] Data were analyzed using the sigmoidal dose-response curve fitting functions in GraphPad PRISM v. 3.0, or an in-house function for non-linear, sigmoidal dose-response curve-fitting.
μ GTP EC50 is the concentration of a compound providing 50% of the maximal response for the compound at a μ-opioid receptor.
μ GTP Emax (%) is the maximal effect elicited by a compound relative to the effect elicited by DAMGO, a standard μ agonist. Generally, the μ GTP Emax (%) value measures the efficacy of a compound to treat or prevent pain or other Conditions.
Target sequence in this assay (P35372 whole entry, species assumed): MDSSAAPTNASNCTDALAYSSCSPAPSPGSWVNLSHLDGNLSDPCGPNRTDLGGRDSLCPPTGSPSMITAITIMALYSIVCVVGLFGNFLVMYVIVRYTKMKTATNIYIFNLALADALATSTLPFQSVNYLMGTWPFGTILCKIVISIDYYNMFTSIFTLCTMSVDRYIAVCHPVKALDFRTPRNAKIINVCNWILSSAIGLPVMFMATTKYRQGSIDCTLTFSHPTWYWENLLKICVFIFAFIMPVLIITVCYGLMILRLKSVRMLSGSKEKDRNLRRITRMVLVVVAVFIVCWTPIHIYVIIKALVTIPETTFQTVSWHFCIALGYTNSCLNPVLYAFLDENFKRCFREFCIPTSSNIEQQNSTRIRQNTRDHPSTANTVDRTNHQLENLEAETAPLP

κ opioid receptor [2] = target: T2, κ opioid receptor (Homo sapiens, UniProt P41145); assay: κ-opioid receptor radioligand dose displacement binding assay; set-up: expressed in transfected cells; host or cells: HEK-293
T2 sequence (P41145 whole entry): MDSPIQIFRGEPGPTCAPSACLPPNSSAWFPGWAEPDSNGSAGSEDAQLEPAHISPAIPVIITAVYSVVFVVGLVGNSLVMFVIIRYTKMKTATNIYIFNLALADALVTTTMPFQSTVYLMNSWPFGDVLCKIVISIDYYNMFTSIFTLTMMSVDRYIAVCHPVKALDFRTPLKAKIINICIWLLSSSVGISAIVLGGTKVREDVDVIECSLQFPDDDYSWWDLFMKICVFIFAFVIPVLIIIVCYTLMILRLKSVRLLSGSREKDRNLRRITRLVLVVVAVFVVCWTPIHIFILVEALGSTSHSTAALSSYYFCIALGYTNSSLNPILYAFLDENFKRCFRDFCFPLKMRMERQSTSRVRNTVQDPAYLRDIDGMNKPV
Protocol: Membranes from recombinant HEK-293 cells expressing the human κ opioid receptor (κ) (cloned in house) were prepared by lysing cells in ice cold hypotonic buffer (2.5 mM MgCl2, 50 mM HEPES, pH 7.4) (10 mL/10 cm dish) followed by homogenization with a tissue grinder/Teflon pestle. Membranes were collected by centrifugation at 30,000×g for 15 min at 4° C. and pellets were resuspended in hypotonic buffer to a final concentration of 1-3 mg/mL. Protein concentrations were determined using the BioRad protein assay reagent with bovine serum albumen as standard. Aliquots of κ receptor membranes were stored at […]

μ-opioid receptor [3] = target: T1, μ-opioid receptor; assay: μ-opioid receptor radioligand dose-displacement binding assay
Protocol: Radioligand dose-displacement binding assays for μ-opioid receptors used 0.3 nM [^3H]-diprenorphine (Perkin Elmer, Shelton, Conn.), with […] membrane protein/well in a final volume of […] binding buffer (10 mM MgCl2, 1 mM EDTA, 5% DMSO, 50 mM HEPES, pH 7.4). Reactions were carried out in the absence or presence of increasing concentrations of unlabeled naloxone. All reactions were conducted in 96-deep well polypropylene plates for 2 hr at room temperature. […] The data were analyzed using the one-site competition curve fitting functions in GraphPad PRISM™ v. 3.0 or higher (San Diego, Calif.), or an in-house function for one-site competition curve-fitting.
Target sequence in this assay (P35372 whole entry): as the sequence (P35372 whole entry, species assumed) above

κ opioid receptor [4] = target: T2, κ opioid receptor; assay: κ-opioid receptor [35S]GTPγS functional assay; assay type: biochemical; set-up: expressed in transfected cells; conditions: for Emax: relative to the effect elicited by U69,593
Protocol: Functional [^35S]GTPγS binding assays were conducted as follows. κ opioid receptor membrane solution was prepared by sequentially adding final concentrations of 0.026 μg/μl κ membrane protein (in-house), 10 μg/mL saponin, 3 μM GDP and 0.20 nM [^35S]GTPγS to binding buffer (100 mM NaCl, 10 mM MgCl2, 20 mM HEPES, pH 7.4) on ice. The prepared membrane solution (190 μl/well) was transferred to 96-shallow well polypropylene plates containing 10 μl of 20× concentrated stock solutions of agonist prepared in DMSO. Plates were incubated for 30 min at a temperature of about 25° C. with shaking.
κ GTP EC50 is the concentration of a compound providing 50% of the maximal response for the compound at a κ receptor.
κ GTP Emax (%) is the maximal effect elicited by a compound relative to the effect elicited by U69,593.

[5] = [3H]-U69,593 displacement, HEK-293 membranes, read-out: Ki (nM) Opioid Receptor κ
[6] = [3H]-diprenorphine displacement, read-out: Ki (nM) Opioid Receptor μ
[7] = κ membrane protein (in-house), read-out: GTPγS κ EC50

Structure (SMILES): COc1ccc2c(c1)[C@@]1(CCCC(=O)O)CCN(CC3CC3)C(C2)[C@@H]1C [Compound 3, 4-((6S,11R)-3-(cyclopropylmethyl)-8-methoxy-11-methyl-1,2,3,4,5,6-hexahydro-2,6-methanobenzo[d]azocin-6-yl)butanoic acid]
- EC50 (μ-opioid receptor [1]; μM): > 20 µM
- Ki (κ opioid receptor [2]; [5]): 137 ± 41.9 nM
- Ki (μ-opioid receptor [3]; [6]): 1110 ± 32.6 nM
- Emax (κ opioid receptor [4]): 80.7%
- EC50 (κ opioid receptor [4]; [7]): 3.47 µM

Structure (SMILES): C[C@H]1[C@H]2Cc3ccc(O)cc3[C@@]1(CCNC(=O)CN)CCN2CC1CC1 [Compound 31]
- Emax (μ-opioid receptor [1]): 102%
- EC50 (μ-opioid receptor [1]): 0.00287 µM
- Ki (κ opioid receptor [2]; [5]): 0.07 ± 0.01 nM
- Emax (κ opioid receptor [4]): 90.3%
- EC50 (κ opioid receptor [4]; [7]): 0.0012 µM

Structure (SMILES): CC(C)N1CC[C@@]2(CCCC(N)=O)c3cc(O)ccc3C[C@@H]1[C@@H]2C [Compound 17, 4-((2R,6R,11R)-8-hydroxy-3-isopropyl-11-methyl-1,2,3,4,5,6-hexahydro-2,6-methanobenzo[d]azocin-6-yl)butanamide]
- Emax (μ-opioid receptor [1]): 38%
- EC50 (μ-opioid receptor [1]): 0.0682 µM
- Ki (κ opioid receptor [2]; [5]): 5 ± 0.53 nM
- Ki (μ-opioid receptor [3]; [6]): 165 ± 6.97 nM
- Emax (κ opioid receptor [4]): 60.7%
- EC50 (κ opioid receptor [4]; [7]): 0.107 µM

Structure (SMILES): C[C@H]1C2Cc3ccc(O)cc3[C@@]1(CCCC(=O)O)CCN2CC1CC1 [Compound 4, 4-((6S,11R)-3-(cyclopropylmethyl)-8-hydroxy-11-methyl-1,2,3,4,5,6-hexahydro-2,6-methanobenzo[d]azocin-6-yl)butanoic acid]
- EC50 (μ-opioid receptor [1]; μM): > 20 µM
- Ki (κ opioid receptor [2]; [5]): 2.52 ± 0.23 nM
- Ki (μ-opioid receptor [3]; [6]): 7.61 ± 2.44 nM
- Emax (κ opioid receptor [4]): 67.3%
- EC50 (κ opioid receptor [4]; [7]): 0.0248 µM

Structure (SMILES): C[C@H]1[C@H]2Cc3ccc(O)cc3[C@]1(CCOc1ccc(C(=O)O)cc1)CCN2CC1CC1 [Compound 28, 4-(2-((2R,6S,11R)-3-(cyclopropylmethyl)-8-hydroxy-11-methyl-1,2,3,4,5,6-hexahydro-2,6-methanobenzo[d]azocin-6-yl)ethoxy)benzoic acid]
- Emax (μ-opioid receptor [1]): 86.3%
- EC50 (μ-opioid receptor [1]): 0.00592 µM
- Ki (κ opioid receptor [2]; [5]): 5.75 ± 1.04 nM
- Emax (κ opioid receptor [4]): 110%
- EC50 (κ opioid receptor [4]; [7]): 0.0391 µM

Structure (SMILES): COC(=O)c1cccc(C(=O)NCC[C@]23CCN(CC4CC4)[C@H](Cc4ccc(OC)cc42)[C@@H]3C)c1 [Compound 26, methyl 3-((2-((2R,6R,11R)-3-(cyclopropylmethyl)-8-methoxy-11-methyl-1,2,3,4,5,6-hexahydro-2,6-methanobenzo[d]azocin-6-yl)ethyl)carbamoyl)benzoate]
- Emax (μ-opioid receptor [1]): 95%
- EC50 (μ-opioid receptor [1]): 0.0461 µM
- Ki (κ opioid receptor [2]; [5]): 0.51 ± 0.07 nM
- Ki (μ-opioid receptor [3]; [6]): 158 ± 44.3 nM
- Emax (κ opioid receptor [4]): 105%
- EC50 (κ opioid receptor [4]; [7]): 0.0153 µM

Structure (SMILES): COc1ccc2c(c1)[C@]1(CCNC(=O)c3ccc(C(=O)O)cc3)CCN(CC3CC3)[C@H](C2)[C@@H]1C [Compound 25, 4-((2-((2R,6R,11R)-3-(cyclopropylmethyl)-8-methoxy-11-methyl-1,2,3,4,5,6-hexahydro-2,6-methanobenzo[d]azocin-6-yl)ethyl)carbamoyl)benzoic acid]
- Emax (μ-opioid receptor [1]): 104%
- EC50 (μ-opioid receptor [1]): 0.584 µM
- Ki (κ opioid receptor [2]; [5]): 479 ± 36.3 nM
- Emax (κ opioid receptor [4]): 69.3%
- EC50 (κ opioid receptor [4]; [7]): 2.41 µM

Structure (SMILES): COC(=O)/C=C/C[C@@]12CCN(CC3CC3)C(Cc3ccc(OC)cc31)[C@@H]2C [Compound 8, (E)-methyl 4-((6S,11R)-3-(cyclopropylmethyl)-8-methoxy-11-methyl-1,2,3,4,5,6-hexahydro-2,6-methanobenzo[d]azocin-6-yl)but-2-enoate]
- Emax (μ-opioid receptor [1]): 46.3%
- EC50 (μ-opioid receptor [1]): 0.562 µM
- Ki (κ opioid receptor [2]; [5]): 3.21 ± 0.76 nM
- Ki (μ-opioid receptor [3]; [6]): 1810 ± 553 nM
- Emax (κ opioid receptor [4]): 99.3%
- EC50 (κ opioid receptor [4]; [7]): 0.123 µM

Structure (SMILES): C[C@H]1[C@H]2Cc3ccc(O)cc3[C@]1(CCCC(N)=O)CCN2CC1CC1 [Compound 20, 4-((2R,6R,11R)-3-(cyclopropylmethyl)-8-hydroxy-11-methyl-1,2,3,4,5,6-hexahydro-2,6-methanobenzo[d]azocin-6-yl)butanamide]
- Emax (μ-opioid receptor [1]): 19%
- EC50 (μ-opioid receptor [1]): 0.00318 µM
- Ki (κ opioid receptor [2]; [5]): 0.08 ± 0.01 nM
- Ki (μ-opioid receptor [3]; [6]): 5.38 ± 0.43 nM
- Emax (κ opioid receptor [4]): 58.2%
- EC50 (κ opioid receptor [4]; [7]): 0.006 µM

Structure (SMILES): COc1ccc2c(c1)[C@]1(CCOc3ccc(C(=O)O)cc3)CCN(CC3CC3)[C@H](C2)[C@@H]1C [Compound 27, 4-(2-((2R,6S,11R)-3-(cyclopropylmethyl)-8-methoxy-11-methyl-1,2,3,4,5,6-hexahydro-2,6-methanobenzo[d]azocin-6-yl)ethoxy)benzoic acid]
- Emax (μ-opioid receptor [1]): 94.7%
- EC50 (μ-opioid receptor [1]): 0.245 µM
- Ki (κ opioid receptor [2]; [5]): 330 ± 70.1 nM
- Emax (κ opioid receptor [4]): 88.3%
- EC50 (κ opioid receptor [4]; [7]): 3.69 µM

Structure (SMILES): COc1ccc2c(c1)[C@@]1(CC(=O)O)CCN(CC3CC3)C(C2)[C@@H]1C [Compound 5, 2-((6R,11R)-3-(cyclopropylmethyl)-8-methoxy-11-methyl-1,2,3,4,5,6-hexahydro-2,6-methanobenzo[d]azocin-6-yl)acetic acid]
- EC50 (μ-opioid receptor [1]; μM): > 20 µM
- Ki (κ opioid receptor [2]; [5]): 4460 ± 1850 nM

Structure (SMILES): COc1ccc2c(c1)[C@]1(CCNC(=O)c3cccc(C(=O)O)c3)CCN(CC3CC3)[C@H](C2)[C@@H]1C [Compound 24, 3-((2-((2R,6R,11R)-3-(cyclopropylmethyl)-8-methoxy-11-methyl-1,2,3,4,5,6-hexahydro-2,6-methanobenzo[d]azocin-6-yl)ethyl)carbamoyl)benzoic acid]
- Emax (μ-opioid receptor [1]): 76.3%
- EC50 (μ-opioid receptor [1]): 0.251 µM
- Ki (κ opioid receptor [2]; [5]): 130 ± 26.5 nM
- Emax (κ opioid receptor [4]): 88.7%
- EC50 (κ opioid receptor [4]; [7]): 0.664 µM

Structure (SMILES): C[C@H]1[C@H]2Cc3ccc(O)cc3[C@]1(CCNC(=O)CN(C)C)CCN2CC1CC1 [Compound 30, N-(2-((2R,6R,11R)-3-(cyclopropylmethyl)-8-hydroxy-11-methyl-1,2,3,4,5,6-hexahydro-2,6-methanobenzo[d]azocin-6-yl)ethyl)-2-(dimethylamino)acetamide]
- Emax (μ-opioid receptor [1]): 82.2%
- EC50 (μ-opioid receptor [1]): 0.00485 µM
- Ki (κ opioid receptor [2]; [5]): 0.05 ± 0.02 nM
- Emax (κ opioid receptor [4]): 96.5%
- EC50 (κ opioid receptor [4]; [7]): 0.00177 µM

Structure (SMILES): C[C@H]1[C@H]2Cc3ccc(O)cc3[C@]1(CCCC(N)=O)CCN2Cc1ccccc1 [Compound 19, 4-((2R,6R,11R)-3-benzyl-8-hydroxy-11-methyl-1,2,3,4,5,6-hexahydro-2,6-methanobenzo[d]azocin-6-yl)butanamide]
- Emax (μ-opioid receptor [1]): 13.7%
- EC50 (μ-opioid receptor [1]): 0.0401 µM
- Ki (μ-opioid receptor [3]; [6]): 2.65 ± 0.36 nM
- EC50 (κ opioid receptor [4]; κ membrane protein (in-house), μM, read-out: GTPγS κ EC50): > 20 µM

Structure (SMILES): COc1ccc2c(c1)[C@@]1(CC(=O)O)CCN(CC3CC3)[C@@H](C2)[C@H]1C [Compound 29, 2-((2S,6R,11S)-3-(cyclopropylmethyl)-8-methoxy-11-methyl-1,2,3,4,5,6-hexahydro-2,6-methanobenzo[d]azocin-6-yl)acetic acid]
- Emax (μ-opioid receptor [1]): 24.8%
- EC50 (μ-opioid receptor [1]): 0.346 µM
- Ki (κ opioid receptor [2]; [3H]-U69,593 displacement, μM, read-out: Ki Opioid Receptor κ): > 20000 nM

Structure (SMILES): COc1ccc2c(c1)[C@@]1(CCC[C@@H](O)CO)CCN(CC3CC3)C(C2)[C@@H]1C [Compound 10, (2R)-5-((6S,11R)-3-(cyclopropylmethyl)-8-methoxy-11-methyl-1,2,3,4,5,6-hexahydro-2,6-methanobenzo[d]azocin-6-yl)pentane-1,2-diol]
- Ki (κ opioid receptor [2]): 6.68 ± 0.61 nM
- Ki (μ-opioid receptor [3]): 3090 ± 922 nM
- EC50 (κ opioid receptor [4]): 0.0943 µM
- Emax (κ opioid receptor [4]): 95%

Structure (SMILES): COc1ccc2c(c1)[C@@]1(CC(=O)N[C@@H](C)C(N)=O)CCN(CC3CC3)C(C2)[C@@H]1C [Compound 7, (2S)-2-(2-((6R,11R)-3-(cyclopropylmethyl)-8-methoxy-11-methyl-1,2,3,4,5,6-hexahydro-2,6-methanobenzo[d]azocin-6-yl)acetamido)propanamide]
- EC50 (μ-opioid receptor [1]; μM): > 20 µM
- Ki (κ opioid receptor [2]; [5]): 193 ± 68.7 nM
- Emax (κ opioid receptor [4]): 29.7%
- EC50 (κ opioid receptor [4]; [7]): 5 µM
